Consider 25 compounds from PubChem BioAssay (NCI).

Values joined by “and” are separate entries in the source; they are usually repeats but may differ in a detail not shown here. Identical values can stand only once.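 Five compound concentrations were applied to cells in 96-well plates for 48 hours; endpoints were derived by simple linear interpolation of the resulting dose-response curve. Abbreviation: GI50, concentration required for 50% inhibition of growth. The concentration for full growth arrest is given as TGI.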

What all share (experiment): NCI anticancer screen, dose series, 48 h
Assay [1] concerns A498 renal.
The subject of assay [2] is DMS 114 small cell lung.
For assay [3], the system named is HOP-18 NSCLC.
Assay [4] deals with HOP-62 NSCLC.
For assay [5], the system named is IGROV1 ovarian.
For assay [6], the system named is KM20L2 colon.
The subject of assay [7] is SNB-75 CNS.
Assay [8] deals with UACC-257 melanoma.
Assay [9] relates to UO-31 renal.
For assay [10], the system named is RPMI-8226 leukemia.

As to `Cc1cccc2c1C(=O)OC2(c1cccc2ccccc12)c1cccc2ccccc12`, the TGI in assay [1], in assay [2], in assay [3], in assay [4], in assay [5] and in [6] was above 100 µM throughout. In addition, the TGI in assay [7], in assay [8] and in assay [9] was above 100 µM each time.

In the case of `CCc1cc2c(c3[nH]ccc13)[C@@H](C)C[C@H]2C`, the TGI worked out at 30.2 µM in assay [1]; 43.4 µM in assay [2]; 37.2 µM in assay [3]; 36.2 µM in assay [5]; 46 µM in assay [10]; 38 µM in assay [7]. Moreover, the figures for the TGI in assay [8] and in [9] were 39.9 µM and 32.3 µM, respectively.

Turning to `CCOc1c(Cc2ccccc2)c(=O)n2c3ccccc3n3c(=O)n(C)c(=O)c1c23`, the TGI in [1], in assay [2], in assay [3], in [4], in assay [5] and in [10] was above 100 µM throughout. For the same compound, the TGI in assay [7] is 81.2 µM; in [8], above 100 µM; in [9], above 100 µM.

As for `O=C1NC(=Nc2ccccc2Cl)SC1C(=O)Nc1ccc([N+](=O)[O-])cc1[N+](=O)[O-]` (centres undefined), the TGI in [1], in [2], in assay [3], in assay [4], in assay [5] and in assay [6] was above 100 µM each time. In addition, the TGI in [10], in [7], in assay [8] and in assay [9] was above 100 µM throughout.

Turning to `COc1cccc(C2N3CCCCC3[C@@H]3c4[nH]c5ccccc5c4CCN23)c1OC` (some centres undefined), the TGI in assay [1] amounted to 23.8 µM; in [2], 29.2 µM; in assay [3], 31.6 µM; in [4] it was 29.4 µM; in assay [5], 34.7 µM; in [6], 27.4 µM. Moreover, the results for the TGI in assay [10], in [8] and in assay [9] were 42.7 µM, 30.1 µM and 28.1 µM, respectively.

With `O=[P+](O)c1cc2c3ccccc3ccc2c2ccccc12`, the TGI in assay [2], in assay [3], in assay [4], in assay [5], in [6] and in assay [10] was above 100 µM each time. This compound also gave a TGI in [7] above 100 µM.

Regarding `O=C1/C(=C/c2ccccc2)CN(C(=O)Oc2ccccc2)C/C1=C\c1ccccc1`, the TGI is above 100 µM in [1]; above 100 µM in assay [2]; above 100 µM in assay [3]; 39.7 µM in assay [4]; 83.2 µM in [5]; above 100 µM in assay [6]. The TGI in assay [10] is 0.819 µM; in assay [7], 17.5 µM; in assay [8] it was above 100 µM; in [9] it was 88.9 µM.

For `COc1ccc(CN[C@H]2CCc3cc(OC)c(OC)c(OC)c3-c3ccc(SC)c(=O)cc32)c(OC)c1OC`, the TGI in assay [1] is 0.0804 µM; in [2] it was 0.0402 µM; in assay [3], above 100 µM; in [4], above 100 µM; in assay [5] it was above 100 µM; in [6], 0.0351 µM and 0.0146 µM. In addition, the TGI in [10] is 31.5 µM; in assay [8], above 100 µM; in [9] it was 98.9 µM. The GI50 was 0.375 µM in [4]; 0.0395 µM in assay [5]; below 0.01 µM in assay [6]; 0.0254 µM in assay [10]; 5.77 µM in [7]; 0.037 µM in [8]. Moreover, the GI50 in [9] is 0.0898 µM.

As for `COC(=O)C([O][Ge]([CH3])([CH3])[CH3])c1ccccc1` (centres undefined), the GI50 in [1], in [2], in assay [3], in assay [4], in assay [5] and in [6] was above 100 µM each time. The GI50 in assay [7], in assay [8] and in assay [9] was above 100 µM each time. Besides, the TGI in assay [1], in assay [2], in assay [3], in assay [4], in [5] and in assay [6] was above 100 µM in each case. Besides, the TGI in assay [7], in [8] and in assay [9] was above 100 µM throughout.

With `O=C1/C(=C/c2ccc(Cl)cc2)COc2ccc(Br)cc21`, the TGI in assay [1], in assay [2], in [3], in assay [4], in assay [5] and in assay [6] was above 100 µM throughout. For the same compound, the TGI in assay [10] was 74.4 µM; in assay [7] it was above 100 µM; in assay [8], above 100 µM; in assay [9], above 100 µM.

With `CC(C(=O)C(C)O[Si](c1ccccc1)(c1ccccc1)C(C)(C)C)=P(c1ccccc1)(c1ccccc1)c1ccccc1` (centres undefined), the TGI in assay [1] is 16.1 µM; in [2], 6.25 µM; in [3], 9.93 µM; in assay [4] it was 9.23 µM; in assay [5], 13.9 µM; in assay [6], 8.66 µM. Moreover, the TGI in [10] was determined as 6.58 µM; in assay [7] it was 8.11 µM; in [8] it was 13.5 µM; in [9] it was 17.2 µM.

For `O=[N+]([O-])C1(CO)COC2(OC1)c1ccccc1-c1ccccc12`, the TGI in [1], in [2], in assay [3], in assay [4], in [5] and in assay [6] was above 100 µM in each case. For the same compound, the TGI in assay [10] was 70.1 µM; in [7], above 100 µM; in [8], above 100 µM; in assay [9], above 100 µM.

For the compound `CC(C)S(=O)(=O)ON1C(=O)c2ccc([N+](=O)[O-])cc2C1=O`, the TGI in [1], in assay [2], in assay [3], in assay [4], in assay [5] and in assay [7] was above 100 µM in each case. Besides, the TGI in assay [8] and in assay [9] was above 100 µM in each case.

Turning to `COc1ccccc1NC(=O)NS(=O)(=O)c1ccccc1`, the TGI in [2], in assay [3], in [4], in assay [6], in assay [7] and in assay [8] was above 100 µM each time. Moreover, in assay [9], the TGI was above 100 µM.

Take `CC(C)N(C(=O)C12C3C4C5C3C1(C(=O)N(C(C)C)C(C)C)C5C42)C(C)C` (centres undefined): the TGI in [1] is above 100 µM; in [2], above 63.2 µM; in assay [3], above 100 µM; in assay [4], above 100 µM; in assay [5], above 100 µM; in assay [6], above 100 µM. The TGI in assay [10] is above 64.4 µM; in [7], above 100 µM; in [8] it was above 100 µM; in [9] it was above 100 µM.

As to `CC(=O)OC1CC2C(C)(C)C(=O)C=C[C@]2(C)C2CCC3(C)C(=CCC3[C@H](CO)C[C@H](O)C(=O)C(C)(C)O)[C@]12C` (some centres undefined), the TGI in assay [1] was 30.7 µM; in assay [2], above 100 µM; in [3], above 100 µM; in assay [5], 49.1 µM; in assay [6], 28 µM; in assay [10], 64.2 µM. Further, the values for the TGI in assay [7], in assay [8] and in assay [9] were 91.6 µM, 30.8 µM and 39.3 µM, respectively.

In the case of `C=CCN1C(=O)C/C(=C2/CCC(=O)N2CC=C)C1=O`, the TGI in assay [1], in assay [2], in assay [3], in assay [4], in assay [5] and in assay [6] was above 100 µM in each case. Besides, the TGI in assay [7], in [8] and in assay [9] was above 100 µM throughout.

Take `CCCCCCCC(=O)O[C@H]1[C@H]2[C@@H](CC1(C)C)C(=O)[C@]13O[C@H]1C(=O)[C@]1(CO1)[C@]23C`: the GI50 in [1] was 21.6 µM; in assay [2], 1.61 µM; in assay [4], 19.5 µM; in [5] it was 20.9 µM; in [6], 2.73 µM; in assay [10], 2.95 µM. The GI50 in assay [7] is 14.2 µM; in assay [8], 5.03 µM; in assay [9], 5.73 µM. Also, the TGI in [1] was 36.1 µM and 22.8 µM; in assay [2] it was 3.41 µM and 9.4 µM; in [3] it was 9.3 µM and 12.8 µM; in assay [4] it was 38.9 µM and 40.2 µM; in [5], 36.6 µM and 11.4 µM; in assay [6], 11.9 µM and 13.8 µM. For the same compound, the TGI is 18.3 µM and 3.34 µM in [10]; 29.4 µM and 53.6 µM in assay [7]; 10.8 µM and 7.04 µM in [8]; 12.9 µM and 28.2 µM in assay [9].

For `C/C(CC(=O)Nc1cc(Cl)c(Cl)cc1Cl)=N\NS(=O)(=O)c1ccc(C)cc1`, the TGI was above 100 µM in [1]; 82.9 µM in [2]; above 100 µM in assay [4]; above 100 µM in assay [5]; above 100 µM in assay [6]; 87.2 µM in assay [10]. Further, the TGI in assay [7] is above 100 µM; in assay [8] it was above 100 µM; in assay [9], 52.3 µM.

Regarding `O=C1CCC(=O)C(C(=O)CCC(=O)Nc2ccc(Cl)cc2)C1` (centres undefined), the TGI in assay [1], in assay [2], in assay [3], in assay [5], in [6] and in assay [10] was above 100 µM in each case. Further, the TGI in assay [8] and in assay [9] was above 100 µM each time.

`NC(=O)COc1ccc(Br)cc1Br`: the TGI in [1], in assay [2], in assay [3], in assay [4], in [5] and in assay [6] was above 100 µM throughout. For the same compound, the TGI in assay [10], in assay [7], in [8] and in assay [9] was above 100 µM throughout.

Turning to `CCC1C(=O)OCc2c1cc1n(c2=O)Cc2ccccc2-1` (centres undefined), the TGI in assay [1], in assay [2], in assay [3], in [4], in assay [5] and in assay [6] was above 100 µM each time. The TGI in [10], in assay [7], in assay [8] and in assay [9] was above 100 µM each time.

As for `BrCC[N+]12CCCN1CCC2`, the TGI is above 66.2 µM in [1]; 21.7 µM in assay [3]; above 70.5 µM in [4]; 51.1 µM in assay [5]; 42.2 µM in assay [6]; 8.38 µM in [10]. The TGI came to 32 µM in [7], 37.2 µM in assay [8] and 39.2 µM in assay [9].

For the compound `CN(C)/C=C/C(=O)c1cccc(C(=O)/C=C/N(C)C)n1`, the TGI in [1], in assay [3], in assay [4], in assay [5], in assay [6] and in [10] was above 100 µM throughout. The TGI in [7], in assay [8] and in [9] was above 100 µM in each case.

Take `c1cc[c]([Sn]([O]c2cccc3cccnc23)([c]2ccccc2)[c]2ccccc2)cc1`: the GI50 in assay [3] is 0.0206 µM; in assay [4], 0.0482 µM; in assay [5] it was 0.0196 µM; in [6] it was 0.0215 µM; in assay [10] it was 0.0184 µM; in assay [7], 0.0509 µM. In addition, the GI50 is 0.0334 µM in [8] and 0.0163 µM in assay [9]. Also, the TGI was determined as 0.0389 µM in assay [3]; 0.145 µM in assay [4]; 0.0428 µM in assay [5]; 0.0448 µM in assay [6]; 0.05 µM in assay [10]; 0.198 µM in assay [7]. In addition, the figures for the TGI in assay [8] and in assay [9] were 0.117 µM and 0.0301 µM, respectively.
